Test results taken from US9732060B2, “Aminotriazine derivative and pharmaceutical composition comprising the same” (Shionogi & Co., Ltd., priority 2013, dated 2017).

Columns and labels:
[1] = target: human ether-a-go-go related gene (hERG) channel (Homo sapiens (Human), UniProt Q12809); assay: hERG test (whole cell patch clamp, IKr); assay type: cell-based; details: CHO cells expressing hERG channel, IKr tail peak current
From the text: For the purpose of assessing risk of an electrocardiogram QT interval prolongation of the compound of the present invention, effects of the compound of the present invention on delayed rectifier K+ current (IKr), which plays an important role in the ventricular repolarization process, was studied using CHO cells expressing human ether-a-go-go related gene (hERG) channel.
After a cell was retained at a membrane potential of −80 mV by whole cell patch clamp method using an automated patch clamp system (QPatch: Sophion Bioscience A/S) and gave a leak potential of −50 mV, IKr induced by depolarization pulse stimulation at +20 mV for 2 seconds and, further, repolarization pulse stimulation at −50 mV for 2 seconds, was recorded. […] From the recording IKr, an absolute value of the tail peak current was measured based on the current value at the resting membrane potential using analysis software (Falster Patch; Sophion Bioscience A/S). Further, the % inhibition relative to the tail peak current before application of the compound of the present invention was calculated, and compared with the vehicle-applied group (0.1% dimethyl sulfoxide solution) to assess influence of the compound of the present invention on IKr.

[2] = Metabolism stability test, pooled human hepatic microsomes; assay type: in vitro ADME; details: remaining rate, human liver microsomes, 30 minutes, compound concentration 0.5 μmol/L
Protocol: Using commercially available pooled human hepatic microsomes, a test compound is reacted for a constant time, a remaining rate is calculated by comparing a reacted sample and an unreacted sample, thereby, a degree of metabolism in liver is assessed.
A reaction was performed (oxidative reaction) at 37° C. for 0 minute or 30 minutes in the presence of 1 mmol/L NADPH in 0.2 mL of a buffer (50 mmol/L tris-HCl pH 7.4, 150 mmol/L potassium chloride, 10 mmol/L magnesium chloride) containing 0.5 mg protein/mL of human liver microsomes. After the reaction, 50 μL of the reaction solution was added to 100 μL of a methanol/acetonitrile=1/1 (v/v) mixed and centrifuged at 3000 rpm for 15 minutes. The test compound in the supernatant was quantified by LC/MS/MS, and a remaining amount of the test compound after the reaction was calculated, letting a compound amount at 0 minute reaction time to be 100%.
The remaining rate at the compound concentration 0.5 μmol/L are shown below.

[3] = Solubility test (1% DMSO, artificial intestinal juice pH 6.8); assay type: physicochemical; details: artificial intestinal juice pH 6.8 with 1% DMSO, 25 °C, fassgf or other biorelevant, kinetic from dmso stock, artificial intestinal juice pH 6.8, 25 degrees Celsius, read-out: Solubulity

human ether-a-go-go related gene (hERG) channel, sequence (Q12809 whole entry): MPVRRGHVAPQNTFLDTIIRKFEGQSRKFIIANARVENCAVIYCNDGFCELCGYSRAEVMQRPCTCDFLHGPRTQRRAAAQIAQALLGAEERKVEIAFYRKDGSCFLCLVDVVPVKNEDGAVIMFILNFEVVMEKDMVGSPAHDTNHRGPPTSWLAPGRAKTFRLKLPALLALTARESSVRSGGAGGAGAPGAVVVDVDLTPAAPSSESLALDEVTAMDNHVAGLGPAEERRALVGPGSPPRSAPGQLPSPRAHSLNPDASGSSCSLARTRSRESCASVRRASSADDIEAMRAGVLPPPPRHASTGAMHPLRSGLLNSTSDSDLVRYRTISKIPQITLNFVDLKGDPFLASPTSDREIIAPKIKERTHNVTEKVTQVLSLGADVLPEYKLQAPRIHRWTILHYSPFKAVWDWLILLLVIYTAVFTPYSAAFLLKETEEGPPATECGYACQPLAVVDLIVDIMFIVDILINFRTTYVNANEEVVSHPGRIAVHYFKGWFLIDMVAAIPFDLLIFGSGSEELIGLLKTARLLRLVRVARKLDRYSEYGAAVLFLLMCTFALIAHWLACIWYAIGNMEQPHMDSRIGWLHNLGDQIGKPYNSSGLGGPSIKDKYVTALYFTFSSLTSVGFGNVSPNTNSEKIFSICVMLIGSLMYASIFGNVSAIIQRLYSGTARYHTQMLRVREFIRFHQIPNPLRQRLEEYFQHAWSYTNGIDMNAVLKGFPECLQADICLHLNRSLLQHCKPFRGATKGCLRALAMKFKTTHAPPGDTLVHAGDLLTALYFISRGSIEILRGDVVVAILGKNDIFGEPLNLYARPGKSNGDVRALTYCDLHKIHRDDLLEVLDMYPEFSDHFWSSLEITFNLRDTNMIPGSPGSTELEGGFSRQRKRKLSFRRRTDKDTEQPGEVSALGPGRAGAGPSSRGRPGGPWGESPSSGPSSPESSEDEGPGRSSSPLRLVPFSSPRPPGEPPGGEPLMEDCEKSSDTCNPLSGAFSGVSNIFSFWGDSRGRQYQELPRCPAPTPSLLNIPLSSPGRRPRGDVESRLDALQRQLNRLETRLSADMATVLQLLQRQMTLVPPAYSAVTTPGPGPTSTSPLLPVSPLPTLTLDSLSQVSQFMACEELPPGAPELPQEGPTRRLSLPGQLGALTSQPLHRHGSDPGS

C[C@@H](C(=O)O)[C@H](C)n1c(=O)[nH]/c(=N\c2ccc(Oc3ccc(F)cn3)c(F)c2)n(Cc2ccc(Cl)cc2)c1=O [Compound I-002]
hERG Inhibition [1]: 7.3%
Metabolism Stability [2]: 99%
solubility at 18 h [3]: > 50 µM

CC(C)(Cn1c(=O)[nH]/c(=N\c2ccc(Oc3ccc(Cl)cn3)cc2)n(Cc2ccc(Cl)cc2)c1=O)C(=O)O [Compound I-006]
hERG Inhibition [1]: 5.3%
